23 molecules from patent US7741362B2, “Somatostatin receptor 1 and/or 4 selective agonists and antagonists” (Siegfried Wurster, priority 2003, dated 2010) can be followed below.

Broadly, the Ki is the equilibrium dissociation constant of an inhibitor or competing ligand from its target.

Experiment [1] addresses T1, human somatostatin receptor subtype SSTR4 (Homo sapiens, UniProt P31391).
T1 construct: expressed in transfected cells; host or cells: CHO cells (membranes)
As to the kind of experiment: Competition binding with 125I-LTT-sst-28, human somatostatin receptor subtype SSTR4. How it is done: (§1) The affinity of the compounds of the invention for the five human somatostatin receptor subtypes (SSTR1, SSTR2, SSTR3, SSTR4, and SSTR5) was determined in competition binding assays with (^125I-Tyr)-[Leu^8,DTrp^22]-somatostatin-28 (^125I-LTT-sst-28). The biological material for these experiments consisted of membranes from Chinese hamster ovary (CHO) cells stably transfected with one of the five human somatostatin receptor subtypes. Membranes (3-20 μg of total protein per sample) and trace amount of ^125I-LTT-sst-28 were incubated in 10 mM Hepes, 1 mM EDTA, 5 mM MgCl2, 5 mg/ml of BSA and 30 μg/ml bacitracin, pH 7.6 with six concentrations of the compounds. Each concentration was run in duplicate. Nonspecific binding was defined by 1 μM somatostatin-14 (sst-14) and corresponded to 5-25% of total binding. After 60 min at room temperature, incubations were terminated by rapid vacuum filtration through GF/B glass fiber filter mats (presoaked at 4° C. in 200 ml of 10 mM Hepes, 1 mM EDTA, 5 mM MgCl2, pH 7.6) and three 5 ml washes with ice-cold wash buffer (20 mM TRIS, 1 mM EDTA, 5 mM MgCl2, pH 7.4). The filters were then dried, impregnated with scintillate and their radioactivity was measured by scintillation counting. The analysis of the experiments was carried out by nonlinear least square curve fitting. Affinity constants (Ki) were calculated from the IC50 values according to the Cheng-Prusoff's equation (Cheng and Prusoff, 1973). Experiments were repeated a minimum of three times.

Experiment [2] concerns the target T2, human somatostatin receptor subtype SSTR2 (Homo sapiens, UniProt P30874).
T2 construct: expressed in transfected cells; host or cells: CHO cells (membranes)
Description: Competition binding with 125I-LTT-sst-28, human somatostatin receptor subtype SSTR2. To be noted: membranes from CHO cells stably transfected with human SSTR2, Cheng-Prusoff. How it is done:
as §1, with “The analysis of the experiments was carried out by nonlinear least square curve fitting.” left out, “Experiments were repeated a minimum of three times.” left out

For experiment [3], the target named is T3, human somatostatin receptor subtype SSTR1 (Homo sapiens, UniProt P30872).
T3 construct: expressed in transfected cells; host or cells: CHO cells (membranes)
As to the kind of experiment: Competition binding with 125I-LTT-sst-28, human somatostatin receptor subtype SSTR1. As to the method:
as §1

Experiment [4] addresses T4, human somatostatin receptor subtype SSTR3 (Homo sapiens, UniProt P32745).
T4 construct: expressed in transfected cells; host or cells: CHO cells (membranes)
Description: Competition binding with 125I-LTT-sst-28, human somatostatin receptor subtype SSTR3. Conditions: membranes from CHO cells stably transfected with human SSTR3, Cheng-Prusoff. As to the method: as §1, with “The analysis of the experiments was carried out by nonlinear least square curve fitting.” left out, “Experiments were repeated a minimum of three times.” left out

In experiment [5] the target is T5, human somatostatin receptor subtype SSTR5 (Homo sapiens, UniProt P35346).
T5 construct: expressed in transfected cells; host or cells: CHO cells (membranes)
Description: Competition binding with 125I-LTT-sst-28, human somatostatin receptor subtype SSTR5. To be noted: membranes from CHO cells stably transfected with human SSTR5, Cheng-Prusoff. As to the method:
as §1, with “The analysis of the experiments was carried out by nonlinear least square curve fitting.” left out, “Experiments were repeated a minimum of three times.” left out

Where [6] appears, read: same protocol, less than 300 nM, read-out: Ki for SSTR4 (bound).
[7] abbreviates: membranes from CHO cells stably transfected with human SSTR4, 125I-LTT-sst-28, Cheng-Prusoff, read-out: Ki (SSTR4).
Where [8] appears, read: same protocol, less than 300 nM, read-out: Ki for SSTR1 (bound).

Where two headings read alike, the source gives them in different places. Some results are limits rather than exact numbers.

T3 sequence (P30872 whole entry): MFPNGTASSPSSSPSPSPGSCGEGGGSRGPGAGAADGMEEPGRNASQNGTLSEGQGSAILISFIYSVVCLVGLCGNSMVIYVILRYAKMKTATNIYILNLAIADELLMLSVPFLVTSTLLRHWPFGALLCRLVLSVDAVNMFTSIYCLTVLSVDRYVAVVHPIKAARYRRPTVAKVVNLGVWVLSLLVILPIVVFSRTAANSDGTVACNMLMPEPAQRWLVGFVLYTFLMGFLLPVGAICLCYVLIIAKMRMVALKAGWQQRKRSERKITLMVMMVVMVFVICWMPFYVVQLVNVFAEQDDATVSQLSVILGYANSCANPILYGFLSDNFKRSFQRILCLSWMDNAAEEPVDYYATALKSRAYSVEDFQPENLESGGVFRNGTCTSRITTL
T1 sequence (P31391 whole entry): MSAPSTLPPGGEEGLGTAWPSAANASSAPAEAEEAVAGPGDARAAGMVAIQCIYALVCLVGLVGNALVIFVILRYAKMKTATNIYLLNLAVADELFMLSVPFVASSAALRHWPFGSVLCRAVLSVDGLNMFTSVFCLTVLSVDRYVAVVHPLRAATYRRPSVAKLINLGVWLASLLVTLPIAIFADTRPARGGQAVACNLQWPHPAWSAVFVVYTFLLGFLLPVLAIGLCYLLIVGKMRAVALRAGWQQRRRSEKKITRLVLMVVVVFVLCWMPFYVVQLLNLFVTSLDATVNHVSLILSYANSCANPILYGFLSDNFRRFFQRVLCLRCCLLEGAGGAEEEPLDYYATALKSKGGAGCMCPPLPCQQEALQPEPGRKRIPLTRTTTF
T2 sequence (P30874 whole entry): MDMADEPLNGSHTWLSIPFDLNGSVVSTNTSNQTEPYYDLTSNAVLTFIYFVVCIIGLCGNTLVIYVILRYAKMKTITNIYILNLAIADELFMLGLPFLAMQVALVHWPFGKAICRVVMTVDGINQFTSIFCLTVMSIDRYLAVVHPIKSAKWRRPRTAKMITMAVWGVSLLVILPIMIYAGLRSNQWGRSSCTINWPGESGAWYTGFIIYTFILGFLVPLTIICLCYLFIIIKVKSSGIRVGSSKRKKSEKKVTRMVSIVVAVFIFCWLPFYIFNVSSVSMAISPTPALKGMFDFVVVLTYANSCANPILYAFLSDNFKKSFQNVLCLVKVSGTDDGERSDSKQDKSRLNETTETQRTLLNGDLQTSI
T5 sequence (P35346 whole entry): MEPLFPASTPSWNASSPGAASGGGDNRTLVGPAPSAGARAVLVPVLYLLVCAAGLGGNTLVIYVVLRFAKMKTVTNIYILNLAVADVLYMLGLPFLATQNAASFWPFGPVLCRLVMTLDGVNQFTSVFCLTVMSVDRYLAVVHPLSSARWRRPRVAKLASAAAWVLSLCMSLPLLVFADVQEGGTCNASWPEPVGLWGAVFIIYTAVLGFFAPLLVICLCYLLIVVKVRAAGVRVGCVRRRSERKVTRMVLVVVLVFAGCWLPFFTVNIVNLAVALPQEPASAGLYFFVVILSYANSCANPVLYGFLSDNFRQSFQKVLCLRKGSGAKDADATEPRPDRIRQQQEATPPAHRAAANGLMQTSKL
T4 sequence (P32745 whole entry): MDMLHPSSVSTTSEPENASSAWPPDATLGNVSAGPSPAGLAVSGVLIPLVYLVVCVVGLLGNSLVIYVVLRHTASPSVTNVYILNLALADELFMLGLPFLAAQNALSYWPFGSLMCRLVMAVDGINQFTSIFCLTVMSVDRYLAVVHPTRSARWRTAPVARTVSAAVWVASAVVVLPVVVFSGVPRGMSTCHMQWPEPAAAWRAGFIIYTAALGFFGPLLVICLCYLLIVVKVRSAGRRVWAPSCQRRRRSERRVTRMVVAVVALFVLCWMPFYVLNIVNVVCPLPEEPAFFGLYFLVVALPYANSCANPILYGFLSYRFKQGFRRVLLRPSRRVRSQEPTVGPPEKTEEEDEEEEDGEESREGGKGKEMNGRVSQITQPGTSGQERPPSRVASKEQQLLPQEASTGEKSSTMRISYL

`Cc1ccc(S(=O)(=O)N[C@@H](CCN)C(=O)NC2CCCCC2)c2ccccc12` [Compound 1, 4-amino-N-cyclohexyl-(S)-2-(N′-(4-methyl-1-naphthalenesulfonyl)amino)butanamide]: the Ki in experiment [1] (setting [6]) was below 300 nM. For `Cc1ccc(S(=O)(=O)N[C@@H](CCN)C(=O)N[C@@H](Cc2ccccc2)C(N)=O)c2ccccc12` [Compound 2, 4-amino-N-(S)-1-carbamoyl-2-phenylethyl-(S)-2-(N′-(4-methyl-1-naphthalenesulfonyl)amino)butanamide], the Ki in experiment [2] was above 5000 nM; in experiment [1] (setting [7]), 1.2 ± 0.4 nM. Take `Cc1ccc(S(=O)(=O)N[C@@H](CCNC(C)C)C(=O)NCc2ccccc2)c2ccccc12` [Compound 3, N-benzyl-4-(N′-isopropyl)amino-(S)-2-(N″-(4-methyl-1-naphthalenesulfonyl)amino)butanamide]: the Ki in experiment [1] (setting [6]) and in experiment [3] (setting [8]) was below 300 nM in each case. With `Cc1ccc(S(=O)(=O)N[C@@H](CCNC(=N)N)C(=O)NCc2ccccc2)c2ccccc12` [Compound 4, N-benzyl-4-guanidino-(S)-2-(N′-(4-methyl-1-naphthalenesulfonyl)amino)butanamide], in experiment [1] (setting [6]), the Ki is below 300 nM. Turning to `Cc1ccc(S(=O)(=O)N[C@@H](CCCNC(=N)N)C(=O)N[C@@H](Cc2ccccc2)C(N)=O)c2ccccc12` [Compound 5, N-((S)-1-carbamoyl-2-phenylethyl)-5-guanidino-(S)-2-(N′-(4-methyl-1-naphthalenesulfonyl)amino)pentanamide], the Ki in experiment [1] (setting [6]) and in experiment [3] (setting [8]) was below 300 nM in each case.

For the molecule `Cc1ccc(S(=O)(=O)N[C@@H](CCCNC(=N)N)C(=O)N[C@H](C(N)=O)C(c2ccccc2)c2ccccc2)c2ccccc12` [Compound 6, N-((S)-1-carbamoyl-2,2-diphenylethyl)-5-guanidino-(S)-2-(N′-(4-methyl-1-naphthalenesulfonyl)amino)pentanamide], the Ki in experiment [1] (setting [6]) and in experiment [3] (setting [8]) was below 300 nM each time. In the case of `Cc1ccc(S(=O)(=O)N[C@@H](CCCN)C(=O)N[C@@H](Cc2ccccc2)C(N)=O)c2ccccc12` [Compound 7, 5-amino-N-((S)-1-carbamoyl-2-phenylethyl)-(S)-2-(N′-(4-methyl-1-naphthalenesulfonyl)amino)pentanamide], the Ki in experiment [1] (setting [6]) and in experiment [3] (setting [8]) was below 300 nM throughout. Turning to `CCc1ccc(S(=O)(=O)N[C@@H](CCN)C(=O)N[C@@H](Cc2ccccc2)C(N)=O)c2ccccc12` [Compound 8, 4-amino-N-((S)-1-carbamoyl-2-phenylethyl)-(S)-2-(N′-(4-ethyl-1-naphthalenesulfonyl)amino)butanamide], the Ki in experiment [1] (setting [6]) is below 300 nM. Still for that read-out and setting: as for `Cc1ccc(S(=O)(=O)N[C@@H](CCN)C(=O)N[C@H](C(N)=O)C(c2ccccc2)c2ccccc2)c2ccccc12` [Compound 9, 4-amino-N-((S)-1-carbamoyl-2,2-diphenylethyl)-(S)-2-(N′-(4-methyl-1-naphthalenesulfonyl)amino)butanamide], the figure is below 300 nM; as for `NCC[C@H](NS(=O)(=O)c1cccc2ccccc12)C(=O)N[C@@H](Cc1ccccc1)C(N)=O` [Compound 10, 4-amino-N-((S)-1-carbamoyl-2-phenylethyl)-(S)-2-(N′-(1-naphthalenesulfonyl)amino)butanamide], below 300 nM. Consider `Cc1ccc(S(=O)(=O)N[C@@H](CCNC2CCCCC2)C(=O)NCc2ccccc2)c2ccccc12` [Compound 11, N-benzyl-4-N′-cyclohexylamino-(S)-2-(N″-(4-methyl-1-naphthalenesulfonyl)amino)butanamide], for which, in experiment [3] (setting [8]), the Ki is below 300 nM.

On to `CCCCOc1ccc(S(=O)(=O)NC(CCCNC(=N)N)C(=O)NC(Cc2ccccc2)C(N)=O)cc1` [Compound 12, (S)-2-N-(4-butoxybenzenesulfonyl)amino-N′-((S)-1-carbamoyl-2-phenylethyl)-5-guanidinopentanamide], for which, in experiment [3] (setting [8]), the Ki is below 300 nM. With `Cc1ccc(S(=O)(=O)N[C@@H](CCN)C(=O)N[C@H](C(N)=O)C(C)C)c2ccccc12` [Compound 13, 4-amino-N-((S)-1-carbamoyl-2-methylpropyl)-(S)-2-(N′-(4-methyl-1-naphthalenesulfonyl)amino)butanamide], the inhibition constant Ki in experiment [1] (setting [6]) is below 300 nM. The same measure, in the same setting: the same measure for `CCc1cc(Br)ccc1S(=O)(=O)NC(CCN)C(=O)NC(Cc1ccccc1)C(N)=O` [Compound 14, 4-amino-(S)-2-N-(4-bromo-2-ethylbenzenesulfonyl)-amino-N′-((S)-1-carbamoyl-2-phenylethyl)butanamide]: below 300 nM. `N=C(N)NCCC[C@H](NS(=O)(=O)c1ccc2ccccc2c1)C(=O)N[C@@H](Cc1ccccc1)C(N)=O` [Compound 15, N-((S)-1-carbamoyl-2-phenylethyl)-5-guanidino-(S)-2-(N′-(2-naphthalenesulfonyl)amino)pentanamide]: the Ki in experiment [3] (setting [8]) was below 300 nM. In the case of `N=C(N)NCCC[C@H](NS(=O)(=O)c1cccc(-c2ccccc2)c1)C(=O)N[C@@H](Cc1ccccc1)C(N)=O` [Compound 16, N-((S)-1-carbamoyl-2-phenylethyl)-5-guanidino-(S)-2-(N′-(3-phenylbenzenesulfonyl)amino)pentanamide], in experiment [1] (setting [6]), the Ki is below 300 nM. As to `Cc1ccc(S(=O)(=O)NC(CCCNC(C)C)C(=O)NC2CCCc3ccccc32)c2ccccc12` [Compound 17, 5-N-isopropylamino-(S)-2-N′-(4-methyl-1-naphthalene-sulfonyl)amino-N″-(1,2,3,4-tetrahydro-1-naphthyl)-pentanamide], the Ki was above 10000 nM in experiment [2]; above 2000 nM in experiment [4]; 84 ± 23 nM in experiment [1] (setting [7]); 1 ± 0.4 nM in experiment [3] (membranes from CHO cells stably transfected with human SSTR1, 125I-LTT-sst-28, Cheng-Prusoff, read-out: Ki (SSTR1)); above 10000 nM in experiment [5].

In the case of `Cc1ccc(S(=O)(=O)NC(CCN)C(=O)NC2CCCc3ccccc32)c2ccccc12` [Compound 18, 4-amino-(S)-2-N-(4-methyl-1-naphthalenesulfonyl)-amino-N′-(1,2,3,4-tetrahydro-1-naphthyl)butanamide], in experiment [3] (setting [8]), the Ki was below 300 nM. Take `Cc1ccc(S(=O)(=O)N[C@@H](CCCN)C(=O)NC2(C(N)=O)Cc3ccccc3C2)c2ccccc12` [Compound 19, 5-amino-N-(2-(2-carbamoyl)indanyl)-(S)-2-(N′-(4-methyl-1-naphthalenesulfonyl)amino)pentanamide]: in experiment [1] (setting [6]), the inhibition constant (Ki) is below 300 nM. As to `Cc1ccc(S(=O)(=O)N[C@@H](CCCN)C(=O)NCCc2c[nH]c3ccccc23)c2ccccc12` [Compound 20, 5-amino-N-(2-(1H-indol-3-yl)ethyl)-(S)-2-(N′-(4-methyl-1-naphthalenesulfonyl)amino)pentanamide], the Ki in experiment [1] (setting [6]) is below 300 nM. Take `Cc1ccc(S(=O)(=O)N[C@@H](CCCN)C(=O)N[C@@H](Cc2cccc(Cl)c2)C(N)=O)c2ccccc12` [Compound 21, 5-amino-N-((S)-1-carbamoyl-2-(3-chlorophenyl)ethyl)-(S)-2-(N′-(4-methyl-1-naphthalenesulfonyl)amino)-pentanamide]: the Ki in experiment [3] (setting [8]) is below 300 nM. Still for that read-out and setting: the same measure for `Cc1ccc(S(=O)(=O)NC(CCCN)C(=O)NC2(C(N)=O)CCc3ccccc3C2)c2ccccc12` [Compound 22, 5-amino-N-(2-(2-carbamoyl)-1,2,3,4-tetrahydronaphthyl)-(S)-2-(N′-(4-methyl-1-naphthalenesulfonyl)amino)-pentanamide]: below 300 nM; for `CNCC[C@H](NS(=O)(=O)c1ccc(C)c2ccccc12)C(=O)NCCc1cccc(Cl)c1` [Compound 23, N-(2-(3-chlorophenyl)ethyl)-4-N′-methylamino-(S)-2-(N″-(4-methyl-1-naphthalenesulfonyl)amino)-butanamide]: below 300 nM.
